Each structure is given as a SMILES string. Where a name gives a salt, the structure may show the parent alone.

Assay [1] has as its system Senna obtusifolia (CASOB, java bean). Kind of assay: Field trial, post-emergence foliar application, weed control rating. Type of assay: in vivo. On the procedure: (§1) As described in the Herbicide Handbook of the Weed Science Society of America, Ninth Edition, 2007, p. […] In some embodiments, the damage or injury to the undesired vegetation caused by the compositions and methods disclosed herein is evaluated using a scale from 0% to 100%, when compared with the untreated control vegetation, wherein 0% indicates no damage to the undesired vegetation and 100% indicates complete destruction of the undesired vegetation. […] 22 (1967)
(§2) Field trials were conducted with applications made to established grassland with naturally occurring weed populations. The target plants were treated with postemergence foliar applications when they were at the beginning of flowering stage and 50 centimeters (cm) (19.7 inches (in)) tall for Senna obtusifolia plants and at the flowering stage and 70-90 cm (27.6-35.4 in) for Melochia parviflora plants. All treatments were applied using a randomized complete block trial design, with 4 replications per treatment.
(§3) Treatments consisted of aminocyclopyrachlor in acid form and the dimethylamine salt of 2,4-D, each in water and applied alone or in combination. Spray solutions were prepared using an appropriate amount of dilution to form a 2.4 liter (L) aqueous spray solution with active ingredients in single and two way combinations. Formulated compounds were applied to the plant material with a backpack sprayer equipped with 8003 nozzles calibrated to deliver 42.8 gallons per acre (gal/acre) (400 liters per hectare (L/ha)) at a spray height of 18-20 inches (45-51 centimeters (cm)) above average plant canopy.
(§4) The treated plants were Senna obtusifolia (CASOB, java bean), or Melochia parviflora (MEOPA). The treated plots and control plots were rated blind at various intervals after application. Ratings were based on a scale of 0-100%, as discussed above, wherein 0% indicates no damage to the undesired vegetation and 100% indicates complete destruction of the undesired vegetation
(§5) Colby's equation was used to determine the herbicidal effects expected from the mixtures, as described above. The results were measured at 42 days or 58-62 days after the first application of the compositions. […] The herbicide tank mix combinations tested, application rates and ratios employed, plant species tested, and results are given below.

The subject of assay [2] is Melochia parviflora (MEOPA). The assay is described as above. Format: in vivo. As to conditions: 58-62 days. The protocol:
as §1, §2, §3, §4, §5

In the case of `Nc1nc(C2CC2)nc(C(=O)O)c1Cl` [Aminocyclopyrachlor, 6-amino-5-chloro-2-cyclopropylpyrimidine-4-carboxylic acid], the “Mean % weed control” value amounted to 72.0% in assay [1] (aminocyclopyrachlor alone 35 g ae/ha, 42 days after application); 6.8% in assay [2] (aminocyclopyrachlor alone 35 g ae/ha); 10.0% in assay [2] (aminocyclopyrachlor alone 70 g ae/ha); 52.1% in assay [2] (aminocyclopyrachlor alone 140 g ae/ha); 81.8% in assay [2] (aminocyclopyrachlor alone 210 g ae/ha).
Turning to `O=C(O)COc1ccc(Cl)cc1Cl` [Dimethylamine salt of 2,4-D, 2,4-dichlorophenoxyacetic acid], the “Mean % weed control” value in assay [1] (dimethylamine salt of 2,4-D alone 1120 g ae/ha, 42 days) is recorded as 64.3%; in assay [2] (dimethylamine salt of 2,4-D alone 1120 g ae/ha), 24.4%.
